Measurements published in ChEMBL document CHEMBL1130255, “Intensely cytotoxic anthracycline prodrugs: glucuronides” (J Med Chem, 1997).

Assays:
[1] = Half-life when incubated at 37 C in 0.05 M phosphate buffer, pH 7.4, the concentration of 12 uM,; type: ADME
glucuronidase = experiment: Half-life in the presence of Escherichia coli -glucuronidase; type: ADME; conditions: Escherichia coli glucuronidase enzyme

half-life at 12 µM [1]: 30 h
half-life (glucuronidase): 1.7 h
SMILES: CCOC(CCCN)O[C@@H]1O[C@H](C(=O)[O-])[C@@H](O)[C@H](O)[C@H]1O.[Na+] (some centres not stated)
